Read-outs that look alike come from different tables or passages of the source.
How the values were obtained:
cGVHD = test: Example 1: corticosteroid and calcineurin inhibitor dose change; assay type: in vivo, human
Procedure: Progression was defined per the 2014 NIH cGVHD Consensus Criteria. Long-term follow-up was conducted every 8 weeks until study closeout. […] Screening was conducted within 28 days of the first study dose. Response was initially assessed after two cycles; however, this was amended to evaluate response on day 1 of each cycle, starting at cycle 2 day 1.
Change from Baseline in Corticosteroids Dose. An EOT visit was performed within 3 days after the participant's last dose of study drug. Baseline value was defined as valid and last non-missing value obtained within 28 days prior to participant receiving first study medication. The mITT population was analyzed, with the ‘overall number of participants analyzed’=participants with available data for this outcome measure.
Change from Baseline in Calcineurin Inhibitor (CNI). Calcineurin inhibitors included systemic tacrolimus and cyclosporine. Number of participants who took CNI at Baseline and had reduction and discontinuation in CNI use as compared to Baseline during the study are reported in this outcome measure. EOT visit was performed within 3 days after the participant's last dose of study drug. Baseline value was defined as valid and last non-missing value obtained within 28 days prior to participant receiving first study medication.

[1] = pharmacokinetics in chronic GVHD patients; assay type: in vivo, human; conditions: 200 and 400 mg
UGT1A9 = molecular target: T1, UGT1A9 (Homo sapiens, UniProt O60656); test: metabolism in vitro; assay type: in vitro ADME
T1 sequence (O60656 26-530): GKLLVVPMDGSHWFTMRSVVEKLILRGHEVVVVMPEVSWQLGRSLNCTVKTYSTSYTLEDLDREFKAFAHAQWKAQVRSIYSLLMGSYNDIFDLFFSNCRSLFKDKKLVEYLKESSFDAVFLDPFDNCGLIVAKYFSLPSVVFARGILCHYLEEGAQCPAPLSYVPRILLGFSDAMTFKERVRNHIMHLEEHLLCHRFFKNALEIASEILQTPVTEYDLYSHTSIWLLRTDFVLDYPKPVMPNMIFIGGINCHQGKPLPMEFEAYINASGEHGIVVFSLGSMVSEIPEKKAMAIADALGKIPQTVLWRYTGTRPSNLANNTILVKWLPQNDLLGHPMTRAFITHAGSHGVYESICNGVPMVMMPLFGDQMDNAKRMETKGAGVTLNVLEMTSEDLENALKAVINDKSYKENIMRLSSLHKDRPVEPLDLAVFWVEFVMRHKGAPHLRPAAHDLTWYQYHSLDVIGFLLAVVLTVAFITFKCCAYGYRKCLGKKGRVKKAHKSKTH

[2] = tested on: patients with chronic GVHD; conditions: for Abdominal pain / Arthralgia / Cough / Decreased appetite / Diarrhea / Dysphagia / Dyspnea / Edema / Headache / Hemorrhage / Hypertension / Infection (pathogen not specified) / Muscle spasm / Musculoskeletal pain / Nasal congestion / Pruritus / Pyrexia / Rash / Viral infection / Asthenia / Nausea: 200 mg once daily (N = 83); for Asthenia: includes fatigue, malaise; for Nausea: includes nausea, vomiting
[3] = Grade 2-4 Max Post, 200 mg once daily
[4] = Grade 3-4 Max Post, 200 mg once daily

## CC(C)NC(=O)COc1cccc(-c2nc(Nc3ccc4[nH]ncc4c3)c3ccccc3n2)c1 [Belumosudil, 2-{3-[4-(1H-indazol-5-ylamino)-2-quinazolinyl]phenoxy}-N-(propan-2-yl) acetamide]
cGVHD; Cohort 1 200 mg QD
  Change From Baseline in Corticosteroids Dose, mean (SD): −0.110 (0.101) milligrams per kilogram per day
  Participants who discontinued CNI, n (%): 0 (0%)
  Participants with reduction in CNI dose, n (%): 5 (83%)
  mean percent change in CS dose from baseline, nonresponder: −26%
  mean percent change in CS dose from baseline, overall: −50%
  mean percent change in CS dose from baseline, responder: −63%
cGVHD; Cohort 2 200 mg BID
  Change From Baseline in Corticosteroids Dose, mean (SD): −0.111 (0.147) milligrams per kilogram per day
  Participants who discontinued CNI, n (%): 1 (17%)
  Participants with reduction in CNI dose, n (%): 5 (83%)
  mean percent change in CS dose from baseline, nonresponder: −37%
  mean percent change in CS dose from baseline, overall: −36%
  mean percent change in CS dose from baseline, responder: −36%
cGVHD; Cohort 3 400 mg QD
  Change From Baseline in Corticosteroids Dose, mean (SD): −0.116 (0.152) milligrams per kilogram per day
  Participants who discontinued CNI, n (%): 3 (27%)
  Participants with reduction in CNI dose, n (%): 6 (55%)
  mean percent change in CS dose from baseline, nonresponder: −19%
  mean percent change in CS dose from baseline, overall: −47%
  mean percent change in CS dose from baseline, responder: −63%
cGVHD; Example 1
  median time to corticosteroid therapy discontinuation: 29 weeks
cGVHD; Example 1, all patients
  mean corticosteroid dose reduction: 45%
cGVHD; Example 1, nonresponders
  mean corticosteroid dose reduction: 26%
cGVHD; Example 1, responders
  mean corticosteroid dose reduction: 55%
cGVHD; Total, N=54
  mean percent change in CS dose from baseline, nonresponder: −26%
  mean percent change in CS dose from baseline, overall: −45%
  mean percent change in CS dose from baseline, responder: −55%
  proportion with CS reduction, % (95% CI): 67%
[1]
  dose dependence of Cmax and AUC: approximately proportional
UGT1A9
  metabolism by UGT1A9: to a lesser extent
[2]; 200 mg once daily, N=83
  adverse reactions leading to dose interruption: 29%
  dose interruption due to asthenia, dyspnea, hemorrhage, hypotension, liver function test abnormal, nausea, pyrexia, edema, renal failure (each): 2%
  dose interruption due to diarrhea: 4%
  dose interruption due to infections: 11%
  patients with fatal adverse reaction: one
  permanent discontinuation due to adverse reactions: 18%
  permanent discontinuation due to nausea: 4%
[2]; All Grades
  Abdominal pain: 22%
  Arthralgia: 15%
  Cough: 30%
  Decreased appetite: 17%
  Diarrhea: 35%
  Dysphagia: 16%
  Dyspnea: 33%
  Edema: 27%
  Headache: 21%
  Hemorrhage: 23%
  Hypertension: 21%
  Infection (pathogen not specified): 53%
  Muscle spasm: 17%
  Musculoskeletal pain: 22%
  Nasal congestion: 12%
  Pruritus: 11%
  Pyrexia: 18%
  Rash: 12%
  Viral infection: 19%
  Asthenia: 46%
  Nausea: 42%
[2]; [3]
  Alanine Aminotransferase Increased: 7%
  Alkaline Phosphatase Increased: 9%
  Calcium Decreased: 12%
  Creatinine Increased: 4%
  Gamma Glutamyl Transferase Increased: 21%
  Hemoglobin Decreased: 11%
  Lymphocytes Decreased: 29%
  Neutrophil Count Decreased: 8%
  Phosphate Decreased: 28%
  Platelets Decreased: 10%
  Potassium Increased: 7%
[2]; [4]
  Alanine Aminotransferase Increased: 2%
  Alkaline Phosphatase Increased: 0%
  Calcium Decreased: 1%
  Creatinine Increased: 0%
  Gamma Glutamyl Transferase Increased: 11%
  Hemoglobin Decreased: 1%
  Lymphocytes Decreased: 13%
  Neutrophil Count Decreased: 4%
  Phosphate Decreased: 7%
  Platelets Decreased: 5%
  Potassium Increased: 1%
[2]; Grades 3-4
  Abdominal pain: 1%
  Arthralgia: 2%
  Cough: 0%
  Decreased appetite: 1%
  Diarrhea: 5%
  Dysphagia: 0%
  Dyspnea: 5%
  Edema: 1%
  Headache: 0%
  Hemorrhage: 5%
  Hypertension: 7%
  Infection (pathogen not specified): 16%
  Muscle spasm: 0%
  Musculoskeletal pain: 4%
  Nasal congestion: 0%
  Pruritus: 0%
  Pyrexia: 1%
  Rash: 0%
  Viral infection: 4%
  Asthenia: 4%
  Nausea: 4%
